Numbered stars: 1 amine (or outer) side, 2 acyl side, 3 side chain; on linkers, the order of the positions; unused ones are H or OH. Peptide text beside a SMILES is read from it. * marks the point of attachment. C18 diacid = O=C(O)CCCCCCCCCCCCCCCCC(=O)*; C16 diacid = O=C(O)CCCCCCCCCCCCCCC(=O)*; γGlu = O=C(O)[C@H](CCC(=O)[*:2])N[*:1]; C14 diacid = O=C(O)CCCCCCCCCCCCC(=O)*
Legend:
[1] = Assay (IX) pK, T½ in mini-pig; type: in vivo, Göttingen mini-pigs; conditions: i.v.
Summary of the method: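 Female Göttingen mini-pigs (5–12 months, 15–35 kg, fed freely) received a single i.v. dose of approximately 5 nmol/kg via central venous catheter, typically n=3. Plasma was sampled from pre-dose to 240 h (sometimes 288 h) and quantified by LC-MS. T½ was derived by non-compartmental analysis from the terminal log-linear slope (ln2/λz).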

[2] = Assay (IV) determination of solubility; type: physicochemical
Protocol: Assay (IV)—Determination of Solubility
The mimylin peptide was dissolved in water at ˜500 nmol/ml and mixed 1:1 with a series of buffers (100 mM glycylglycine pH 3.0, 100 mM glycylglycine pH 4.0, 100 mM glycylglycine pH 5.0, 100 mM bistrispropane pH 6.0, 100 mM bistrispropane pH 6.5, 100 mM bistrispropane pH 7.0, 100 mM bistrispropane pH 7.5, 100 mM bistrispropane pH 8.0).

Assay (X) pK, T½ in rat = type: in vivo, Sprague Dawley rats; conditions: for PK rat iv T½: i.v.; for PK rat sc T½: s.c.
Protocol: Assay (X)—pK—Determination of T½ in Rat
Pharmacokinetic (PK) studies rats were conducted in order to determine the T½ of mimylin peptide after i.v. and s.c. administration.
T½ values of the mimylin derivates of the invention is determined by pharmacokinetic studies in Sprague Dawley male rats, from Taconic Europe and the principles of laboratory animal care are followed.
An acclimatisation period of approximately 7 days was allowed before the animals entered the study. At start of the acclimatisation period the rats were in the weight range of 250-400 g.
The studies were conducted in an animal room which was illuminated to give a cycle of approximately 12 hours light and 12 hours darkness. The animals were group housed and had food and water ad lib. The animals were weighed on the days of dosing.
In the present studies the test substances were administered subcutaneously or intravenously in approximately 20 nmol/kg dose. The animals received a single subcutaneous injection to the neck for subtaneous administration or directly into the tail vein for intravenous administration. Each test substance was given to typically three but in some cases two or four animals.
A full plasma concentration-time profile, employing 8-10 sampling points, was obtained from each animal. In example blood samples were collected according to the following schedule: After subcutaneous or intravenous administration:
At each sampling time, 0.08 to 0.10 ml of blood was drawn from each animal. The blood samples were taken in the sublingual vein via venous puncture and the use of a capillary tube.
The blood samples were stabilised with EDTA. Blood samples were kept on ice for max 20 min. before centrifugation. Plasma was separated using centrifugation (i.e. at 4° C., 10 min., 1500G) and was immediately transferred to Micronic tubes or PCR plates. Approximately 40 μl plasma was transferred and was stored at −20° C. until assayed. The plasma samples were assayed for the content of mimylin compound by LCMS
The plasma concentration-time profiles were analysed by a non-compartmental pharmacokinetic analysis (NCA) using Phoenix WinNonlin 6.3 (Pharsight Inc., Mountain View, Calif., USA). NCA was performed using the individual plasma concentration-time profiles from each animal. T½ is the terminal half-life=In2/λz and was determined from λz, the first order rate constant associated with the terminal (log-linear) portion of the curve, estimated by linear regression of time vs. log concentration.

[3] = biological target: T1, human amylin 3(a) receptor (human calcitonin receptor + RAMP-3), BHK570 cells (Homo sapiens, UniProt O60896+P30988); test: Assay (II)b functional CRE-luciferase assay without albumin, human amylin receptor; type: cell-based; conditions: Tested without HSA; read-out: hAmylin-R funct. EC50
T1 construct: host or cells: BHK570
T1 sequence (O60896 24-148, one chain of several): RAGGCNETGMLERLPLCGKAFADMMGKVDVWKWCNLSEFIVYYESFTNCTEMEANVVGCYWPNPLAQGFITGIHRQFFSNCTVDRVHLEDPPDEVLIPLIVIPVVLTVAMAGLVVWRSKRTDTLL
Summary of the method: (§1)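 BHK570 cells stably expressing human calcitonin receptor with CRE-luciferase reporter, plus RAMP-3 for the amylin 3(a) line. Cells stimulated 3 hours at 37 °C in albumin-free assay medium (0.1% ovalbumin, 10 mM Hepes pH 7.4); cAMP-driven luciferase read by luminescence.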

[4] = biological target: T2, human calcitonin (a) receptor, BHK570 cells (Homo sapiens, UniProt P30988); test: Assay (II)a functional CRE-luciferase assay with albumin, human calcitonin receptor; type: cell-based; conditions: Tested with HSA; read-out: hCTR funct. EC50
T2 construct: host or cells: BHK570
T2 sequence (P30988 25-474): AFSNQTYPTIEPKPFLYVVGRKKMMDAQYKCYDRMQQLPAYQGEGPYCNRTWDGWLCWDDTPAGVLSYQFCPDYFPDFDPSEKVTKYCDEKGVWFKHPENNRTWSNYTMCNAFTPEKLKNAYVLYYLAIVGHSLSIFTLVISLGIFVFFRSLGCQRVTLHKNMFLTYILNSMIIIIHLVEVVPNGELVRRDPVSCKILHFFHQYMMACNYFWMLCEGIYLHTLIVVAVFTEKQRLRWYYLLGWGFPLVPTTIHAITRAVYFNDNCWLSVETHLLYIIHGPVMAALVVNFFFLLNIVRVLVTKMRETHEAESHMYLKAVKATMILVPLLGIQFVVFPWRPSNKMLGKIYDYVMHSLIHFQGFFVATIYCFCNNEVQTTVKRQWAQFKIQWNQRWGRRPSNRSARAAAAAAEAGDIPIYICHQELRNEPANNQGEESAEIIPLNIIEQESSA
Description: (§2) Assay(II)a—Human Calcitonin and Amylin Receptor Assay
(§3) 1. Luciferase Assay Outline
(§4) Activation of calcitonin and amylin (co-expression of calcitonin receptor and receptor activity modifying proteins (RAMP)) receptors lead to increased intracellular concentrations of cAMP. Consequently, transcription is activated by promoters containing multiple copies of the cAMP response element (CRE). It is thus possible to measure amylin activity by the use of a CRE luciferase reporter gene introduced into BHK cells also expressing calcitonin or amylin receptors.
(§5) 2. Construction of Calcitonin (a)—and Amylin 3(a)—Receptor/CRE-Luc Cell Line.
(§6) A BHK570 cell line was stably transfected with the human calcitonin receptor and a CRE-responsive luciferase reporter gene. The cell line was further transfected with RAMP-3, using standard methods. This turns the calcitonin receptor into an amylin 3(a) receptor. Methotrexate, Neomycin, and Hygromycin are selection markers for luciferase, the calcitonin receptor, and RAMP-3, respectively.
(§7) To perform activity assays, BHK calcitonin (a) receptor- or amylin 3(a)-receptor/CRE-luc cells were seeded in white 96 well culture plates at a density of about 20.000 cells/well. […] After incubation overnight at 37° C. and 5% CO2, the growth medium was replaced by 50 μl/well assay medium (DMEM (without phenol red), Glutamax™, 10% FBS, and 10 mM Hepes, pH 7.4). Further, 50 μl/well of standard or sample in assay buffer were added.
(§8) After 3 hours incubation at 37° C. and 5% CO2, the assay medium with standard or sample were removed and replaced by 100 μl/well PBS. Further, 100 μl/well LucLite™ was added. The plates were sealed and incubated at room temperature for 30 minutes. Finally, luminescence was tested on a TopCounter (Packard) in SPC (single photon counting) mode.

[5] = biological target: T1, human amylin 3(a) receptor (human calcitonin receptor + RAMP-3), BHK570 cells; test: Assay (II)a functional CRE-luciferase assay with albumin, human amylin receptor; type: cell-based; conditions: Tested with HSA; read-out: hAmylin-R funct. EC50
Description: as §2, §3, §4, §5, §6, §7, §8

[6] = biological target: T2, human calcitonin (a) receptor, BHK570 cells; test: Assay (II)b functional CRE-luciferase assay without albumin, human calcitonin receptor; type: cell-based; conditions: Tested without HSA; read-out: hCTR funct. EC50
Summary of the method: as §1

With CC(C)C[C@H](NC(=O)[C@H](C)NC(=O)[C@H](C)NC(=O)[C@@H](NC(=O)[C@H](CO)NC(=O)[C@H](CC(C)C)NC(=O)[C@H](CCC(=O)O)NC(=O)[C@H](CO)NC(=O)[C@H](C)NC(=O)[C@H](CCC(=O)O)NC(=O)CCCCCCCCCCCCC(=O)O)[C@@H](C)O)C(=O)NCC(=O)N[C@@H](CCCNC(=N)N)C(=O)N[C@@H](CC(C)C)C(=O)N[C@@H](CO)C(=O)N[C@@H](C)C(=O)N[C@@H](CCC(=O)O)C(=O)N[C@@H](CC(C)C)C(=O)N[C@@H](Cc1cnc[nH]1)C(=O)N[C@@H](CCC(=O)O)C(=O)N[C@@H](CC(C)C)C(=O)N[C@@H](C)C(=O)N[C@H](C(=O)N[C@@H](CC(C)C)C(=O)N1CCC[C@H]1C(=O)N[C@@H](CCCNC(=N)N)C(=O)N[C@H](C(=O)N[C@@H](CCC(=O)O)C(=O)N[C@H](C(=O)NCC(=O)N1CCC[C@H]1C(=O)N[C@@H](CCC(=O)O)C(=O)N[C@@H](CO)C(=O)N1CCC[C@H]1C(N)=O)[C@@H](C)O)[C@@H](C)O)[C@@H](C)O [Ex. #4, [N-terminal(C14 diacid)]mimylin] ({C14 diacid}-EASELSTAALGRLSAELHELATLPRTETGPESP-NH2) the “PK mini pig iv T½” value [1] was 2 h, the Solubility ([2]; pH 3.0) was “≧200 μM” and the Solubility ([2]; pH 4.0) was “≧200 μM”. For the same compound, the Solubility ([2]; pH 5.0) was “≧200 μM”, the Solubility ([2]; pH 6.0) was “≧200 μM” and the Solubility ([2]; pH 6.5) was “≧200 μM”. For the same compound, the Solubility ([2]; pH 7.0) was “≧200 μM”, the Solubility ([2]; pH 7.5) was “≧200 μM” and the Solubility ([2]; pH 8.0) was “≧200 μM”. The “PK rat iv T½” value (Assay (X) pK, T½ in rat) was 3 h and the “PK rat sc T½” value (Assay (X) pK, T½ in rat) was 3 h.
With CC(C)C[C@H](NC(=O)[C@H](C)NC(=O)[C@H](C)NC(=O)[C@@H](NC(=O)[C@H](CO)NC(=O)[C@H](CC(C)C)NC(=O)[C@H](CCC(=O)O)NC(=O)[C@H](CO)NC(=O)[C@H](C)NC(=O)CC[C@H](NC(=O)CCCCCCCCCCCCCCCCC(=O)O)C(=O)O)[C@@H](C)O)C(=O)NCC(=O)N[C@@H](CCCNC(=N)N)C(=O)N[C@@H](CC(C)C)C(=O)N[C@@H](CO)C(=O)N[C@@H](C)C(=O)N[C@@H](CCC(=O)O)C(=O)N[C@@H](CC(C)C)C(=O)N[C@@H](Cc1c[nH]cn1)C(=O)N[C@@H](CCC(=O)O)C(=O)N[C@@H](CC(C)C)C(=O)N[C@@H](C)C(=O)N[C@H](C(=O)N[C@@H](Cc1ccc(O)cc1)C(=O)N1CCC[C@H]1C(=O)N[C@@H](CCCNC(=N)N)C(=O)N[C@H](C(=O)N[C@@H](CCC(=O)O)C(=O)N[C@H](C(=O)NCC(=O)N[C@@H](CO)C(=O)NCC(=O)N[C@@H](CO)C(=O)N1CCC[C@H]1C(N)=O)[C@@H](C)O)[C@@H](C)O)[C@@H](C)O [compound 58, [N-terminal(C18 diacid-gGlu), des1, 23Y, 30S, 31G]mimylin] ({C18 diacid-γGlu}-ASELSTAALGRLSAELHELATYPRTETGSGSP-NH2) the EC50 [3] was 0.01 nM, the EC50 [4] was 0.015 nM and the solubility at 18 h ([2]; bistrispropane buffer, pH 6.5) was ≥ 200 µM. For the same compound, the solubility at 18 h ([2]; bistrispropane buffer, pH 7.5) was ≥ 200 µM, the solubility at 18 h ([2]; bistrispropane buffer, pH 6.0) was ≥ 200 µM and the solubility at 18 h ([2]; bistrispropane buffer, pH 7.0) was ≥ 200 µM. The solubility at 18 h ([2]; bistrispropane buffer, pH 8.0) was ≥ 200 µM, the solubility at 18 h ([2]; glycylglycine buffer, pH 3.0) was ≥ 200 µM and the solubility at 18 h ([2]; glycylglycine buffer, pH 4.0) was ≥ 200 µM. The solubility at 18 h ([2]; glycylglycine buffer, pH 5.0) was ≥ 200 µM, the EC50 [5] was 0.024 nM and the EC50 [6] was 0.01 nM.
With CC(C)C[C@H](NC(=O)[C@H](C)NC(=O)[C@H](C)NC(=O)[C@@H](NC(=O)[C@H](CO)NC(=O)[C@H](CC(C)C)NC(=O)[C@H](CCC(=O)O)NC(=O)[C@H](CO)NC(=O)[C@H](C)NC(=O)[C@H](CCC(=O)O)NC(=O)CCCCCCCCCCCCCCC(=O)O)[C@@H](C)O)C(=O)NCC(=O)N[C@@H](CCCNC(=N)N)C(=O)N[C@@H](CC(C)C)C(=O)N[C@@H](CO)C(=O)N[C@@H](C)C(=O)N[C@@H](CCC(=O)O)C(=O)N[C@@H](CC(C)C)C(=O)N[C@@H](Cc1cnc[nH]1)C(=O)N[C@@H](CCC(=O)O)C(=O)N[C@@H](CC(C)C)C(=O)N[C@@H](C)C(=O)N[C@H](C(=O)N[C@@H](CC(C)C)C(=O)N1CCC[C@H]1C(=O)N[C@@H](CCCNC(=N)N)C(=O)N[C@H](C(=O)N[C@@H](CCC(=O)O)C(=O)N[C@H](C(=O)NCC(=O)N1CCC[C@H]1C(=O)N[C@@H](CCC(=O)O)C(=O)N[C@@H](CO)C(=O)N1CCC[C@H]1C(N)=O)[C@@H](C)O)[C@@H](C)O)[C@@H](C)O [compound 3, [N-terminal(C16 diacid)]mimylin] ({C16 diacid}-EASELSTAALGRLSAELHELATLPRTETGPESP-NH2) the “PK mini pig iv T½” value [1] was 17 h, the Solubility ([2]; pH 3.0) was “≧200 μM” and the Solubility ([2]; pH 4.0) was “≧200 μM”. The Solubility ([2]; pH 5.0) was “≧200 μM”, the Solubility ([2]; pH 6.0) was “≧200 μM” and the Solubility ([2]; pH 6.5) was “≧200 μM”. The Solubility ([2]; pH 7.0) was “≧200 μM”, the Solubility ([2]; pH 7.5) was “≧200 μM” and the Solubility ([2]; pH 8.0) was “≧200 μM”. For the same compound, the “PK rat iv T½” value (Assay (X) pK, T½ in rat) was 3 h and the “PK rat sc T½” value (Assay (X) pK, T½ in rat) was 3 h.
